In the supplement of paper PMC10307832:

Key:
Assay in all cases: relative viability (nuclei count vs DMSO), 5 days (fraction); higher = more cells survive
[1] = compound: CN(C)CC1=CC(=CC=C1)N=C(C2=CC=CC=C2)C3=C(NC4=C3C=CC(=C4)C(=O)N(C)C)O + C[C@]1(O)C[C@@H](c2nc(-c3ccc4ccc(-c5ccccc5)nc4c3)c3c(N)nccn32)C1 [Linsitinib] (partner 1 µM)
Outline: (§1)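 Lung cancer cell lines were pin-tool dosed in 1536-well plates on the day after seeding, with either a lone drug or a fixed anchor-drug dose plus five library-drug doses (not always all listed) in √10 steps. Nuclei were counted on 4× images after 5 days. Relative viability is the ratio of treated-well to vehicle-well nuclei counts, with each value a median of duplicate plates.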

[2] = compound: CN(C)CC1=CC(=CC=C1)N=C(C2=CC=CC=C2)C3=C(NC4=C3C=CC(=C4)C(=O)N(C)C)O + Cc1nc(NC(=O)N2CCC[C@H]2C(N)=O)sc1-c1ccnc(C(C)(C)C(F)(F)F)c1 [Alpelisib] (partner 2 µM)
Outline: as §1

[3] = compound: CN(C)CC1=CC(=CC=C1)N=C(C2=CC=CC=C2)C3=C(NC4=C3C=CC(=C4)C(=O)N(C)C)O + COc1cccc2cc(-c3nc([C@H]4CC[C@H](C(=O)O)CC4)n4ncnc(N)c34)[nH]c12 [OSI-027] (partner 0.5 µM)
Outline: as §1

[4] = compound: CN(C)CC1=CC(=CC=C1)N=C(C2=CC=CC=C2)C3=C(NC4=C3C=CC(=C4)C(=O)N(C)C)O + CS(=O)(=O)CCNCc1ccc(-c2ccc3ncnc(Nc4ccc(OCc5cccc(F)c5)c(Cl)c4)c3c2)o1 [Lapatinib] (partner 2 µM)
Outline: as §1

Cell Line	relative viability ([1]; first compound 0.08 µM)	relative viability ([1]; first compound 0.253 µM)	relative viability ([1]; first compound 0.8 µM)	relative viability ([1]; first compound 2.53 µM)	relative viability ([1]; first compound 8 µM)	relative viability ([2]; first compound 0.08 µM)	relative viability ([2]; first compound 0.253 µM)	relative viability ([2]; first compound 0.8 µM)	relative viability ([2]; first compound 2.53 µM)	relative viability ([2]; first compound 8 µM)	relative viability ([3]; first compound 0.08 µM)	relative viability ([3]; first compound 0.253 µM)	relative viability ([3]; first compound 0.8 µM)	relative viability ([3]; first compound 2.53 µM)	relative viability ([3]; first compound 8 µM)	relative viability ([4]; first compound 0.08 µM)	relative viability ([4]; first compound 0.253 µM)	relative viability ([4]; first compound 0.8 µM)	relative viability ([4]; first compound 2.53 µM)	relative viability ([4]; first compound 8 µM)
201T	1.07	1.06	0.937	1.04	0.927	1	0.968	0.977	0.962	0.955	0.737	0.736	0.762	0.586	0.584	0.95	1.01	1.01	1.02	0.981
A549	0.595	0.575	0.518	0.544	0.475	0.77	0.921	0.883	0.711	0.592	–	–	–	–	–	0.962	1.01	1.02	0.945	0.934
A-427	1.08	1.1	1.13	1.01	1.06	1.04	1.04	1.09	1.03	1.07	0.472	0.429	0.497	0.509	0.36	1.03	1.06	1.09	1.03	1.1
ABC-1	0.773	0.965	0.709	0.728	0.73	1.14	1.03	0.957	0.896	1.09	0.433	0.504	0.442	0.568	0.447	1.19	1.13	1.02	0.827	0.938
BEN	0.98	0.876	0.793	0.846	0.75	1.02	0.947	1.08	0.928	0.82	0.286	0.31	0.25	0.306	0.289	0.734	0.647	0.72	0.685	0.656
CAL-12T	0.779	0.838	0.799	0.771	0.841	1.19	1.29	1.18	1.11	1.15	0.736	0.746	0.686	0.849	0.527	–	0.746	0.878	–	0.755
COR-L23	1.06	0.889	1.07	0.878	0.759	0.796	0.757	0.818	0.632	0.575	0.722	0.788	0.818	0.741	0.732	1.05	0.895	0.922	0.92	0.975
COR-L 105	0.888	0.838	1.1	1.02	0.805	0.844	0.892	1.01	0.813	0.808	0.634	0.641	0.477	0.687	0.609	0.384	0.406	0.318	0.357	0.349
Calu-6	0.951	0.877	0.989	0.911	0.885	1.05	1.11	1.06	0.971	0.93	–	–	–	–	–	1.13	1.01	1.02	1.07	1.03
ChaGo-K-1	–	–	–	–	–	–	–	–	–	–	0.584	0.582	0.609	0.588	0.527	–	–	–	–	–
EKVX	1.1	0.925	1.05	1.06	1.07	0.878	0.847	0.843	0.886	0.879	0.718	0.726	0.781	0.764	0.739	0.196	0.294	0.205	0.224	0.23
EMC-BAC-2	0.884	0.797	0.778	0.787	0.717	0.763	0.743	0.71	0.738	0.67	0.369	0.416	0.392	0.356	0.391	0.927	0.914	0.953	0.898	0.878
EPLC-272H	1.21	1.11	0.937	1.15	0.934	0.935	0.872	0.825	1.06	0.856	0.312	0.37	0.264	0.258	0.283	0.927	0.996	0.845	0.955	0.989
H3255	0.881	0.959	0.924	0.954	1.03	0.781	0.754	0.635	0.635	0.84	0.649	0.592	0.698	0.682	0.632	0.25	0.31	0.235	0.222	0.292
HARA	0.965	1.04	0.865	0.921	0.715	0.79	0.824	0.715	0.788	0.713	0.525	0.553	0.397	0.482	0.319	0.794	0.842	0.686	0.803	0.744
HCC-15	0.869	0.849	0.976	0.974	0.805	0.947	0.802	0.927	0.937	0.954	0.705	0.692	0.77	0.6	0.719	0.891	0.821	0.947	0.776	0.924
HCC-44	0.67	0.683	0.641	0.613	0.664	0.787	0.736	0.768	0.766	0.77	0.67	0.584	0.6	0.392	0.533	0.953	1.03	0.986	0.937	1.03
